Patent US7786137B2, “Bicyclic derivatives as modulators of ion channels” (Vertex Pharmaceuticals Incorporated, priority 2005, dated 2010)
Where two headings read alike, the source gives them in different places.

How the values were obtained:
[1] = molecular target: NaV1.2 (Homo sapiens, UniProt Q99250); details: read-out: TTX IC50; cited from earlier work
[2] = molecular target: NaV1.8 (Homo sapiens, UniProt Q9Y5Y9); details: read-out: TTX IC50; cited from earlier work
[3] = molecular target: T1, NaV1.3 (Homo sapiens, UniProt Q9NY46); details: read-out: TTX IC50; cited from earlier work
Target sequence in this assay (Q9NY46 whole entry, looked up): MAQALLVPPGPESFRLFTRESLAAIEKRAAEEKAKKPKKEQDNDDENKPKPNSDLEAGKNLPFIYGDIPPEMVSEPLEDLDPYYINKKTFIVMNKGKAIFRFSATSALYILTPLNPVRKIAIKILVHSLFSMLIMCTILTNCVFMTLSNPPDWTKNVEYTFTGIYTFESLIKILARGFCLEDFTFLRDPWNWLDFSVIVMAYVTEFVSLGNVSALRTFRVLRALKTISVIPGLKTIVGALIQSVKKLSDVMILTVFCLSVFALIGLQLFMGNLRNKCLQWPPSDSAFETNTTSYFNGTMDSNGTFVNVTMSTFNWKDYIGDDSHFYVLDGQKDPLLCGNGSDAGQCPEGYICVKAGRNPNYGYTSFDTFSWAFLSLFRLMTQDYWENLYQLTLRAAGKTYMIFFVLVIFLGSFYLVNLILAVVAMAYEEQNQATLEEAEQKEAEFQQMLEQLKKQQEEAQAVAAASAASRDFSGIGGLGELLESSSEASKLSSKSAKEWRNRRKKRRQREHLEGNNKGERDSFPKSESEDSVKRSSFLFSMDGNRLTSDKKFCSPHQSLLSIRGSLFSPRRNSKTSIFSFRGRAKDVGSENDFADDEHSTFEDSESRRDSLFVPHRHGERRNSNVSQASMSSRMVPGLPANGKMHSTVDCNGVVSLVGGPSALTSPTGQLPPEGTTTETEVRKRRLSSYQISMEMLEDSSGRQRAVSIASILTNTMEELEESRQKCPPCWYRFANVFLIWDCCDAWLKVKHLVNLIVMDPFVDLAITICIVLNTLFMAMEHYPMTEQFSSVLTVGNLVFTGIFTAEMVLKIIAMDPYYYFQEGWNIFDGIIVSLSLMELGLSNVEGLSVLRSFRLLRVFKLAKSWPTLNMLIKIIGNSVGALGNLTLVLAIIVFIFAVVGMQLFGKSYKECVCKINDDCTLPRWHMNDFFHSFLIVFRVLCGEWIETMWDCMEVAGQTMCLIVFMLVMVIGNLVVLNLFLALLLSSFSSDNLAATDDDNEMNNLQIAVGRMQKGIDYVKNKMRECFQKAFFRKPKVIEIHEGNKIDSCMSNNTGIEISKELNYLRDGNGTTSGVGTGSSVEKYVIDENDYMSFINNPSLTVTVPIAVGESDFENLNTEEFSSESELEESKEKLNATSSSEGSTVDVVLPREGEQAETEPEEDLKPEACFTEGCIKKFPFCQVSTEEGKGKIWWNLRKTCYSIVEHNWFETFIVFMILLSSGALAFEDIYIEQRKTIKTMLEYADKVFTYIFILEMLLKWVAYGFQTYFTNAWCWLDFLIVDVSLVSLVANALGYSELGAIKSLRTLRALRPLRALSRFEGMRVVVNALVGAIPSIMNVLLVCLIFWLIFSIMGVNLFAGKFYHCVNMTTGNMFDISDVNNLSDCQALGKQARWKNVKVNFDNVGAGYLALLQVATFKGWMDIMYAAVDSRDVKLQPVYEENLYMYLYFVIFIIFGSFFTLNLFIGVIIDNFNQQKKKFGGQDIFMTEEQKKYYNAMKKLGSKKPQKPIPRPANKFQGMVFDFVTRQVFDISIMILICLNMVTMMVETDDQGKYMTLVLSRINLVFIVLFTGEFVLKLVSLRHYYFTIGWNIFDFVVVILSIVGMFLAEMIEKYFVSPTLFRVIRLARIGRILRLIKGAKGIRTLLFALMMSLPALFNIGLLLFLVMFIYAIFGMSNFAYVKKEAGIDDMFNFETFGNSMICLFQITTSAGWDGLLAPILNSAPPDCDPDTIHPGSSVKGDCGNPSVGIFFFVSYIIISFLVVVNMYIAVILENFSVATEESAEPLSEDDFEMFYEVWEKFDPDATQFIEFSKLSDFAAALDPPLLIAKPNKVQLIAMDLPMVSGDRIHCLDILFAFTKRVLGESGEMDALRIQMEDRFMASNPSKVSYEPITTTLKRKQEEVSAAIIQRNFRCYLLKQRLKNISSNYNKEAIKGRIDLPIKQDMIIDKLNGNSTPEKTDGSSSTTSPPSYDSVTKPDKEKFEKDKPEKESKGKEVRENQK

[4] = molecular target: NaV1.9 (Homo sapiens, UniProt Q9UI33); details: read-out: TTX IC50; cited from earlier work
[5] = molecular target: NaV1.6 (Homo sapiens, UniProt Q9UQD0); details: read-out: TTX IC50; cited from earlier work
[6] = molecular target: NaV1.1 (Homo sapiens, UniProt P35498); details: read-out: TTX IC50; cited from earlier work
[7] = neuropathic pain, modest efficacy; cited from earlier work
[8] = molecular target: T1, NaV1.3; assay: VIPR optical membrane potential assay, NaV1.3 inhibition; assay type: cell-based; parameters: expressed in transfected cells; host or cells: HEK293; details: activity against NaV 1.3 channel
Target sequence in this assay (Q9NY46 whole entry): as the sequence (Q9NY46 whole entry, looked up) above

Sequence of NaV1.2 (Q99250 whole entry, looked up): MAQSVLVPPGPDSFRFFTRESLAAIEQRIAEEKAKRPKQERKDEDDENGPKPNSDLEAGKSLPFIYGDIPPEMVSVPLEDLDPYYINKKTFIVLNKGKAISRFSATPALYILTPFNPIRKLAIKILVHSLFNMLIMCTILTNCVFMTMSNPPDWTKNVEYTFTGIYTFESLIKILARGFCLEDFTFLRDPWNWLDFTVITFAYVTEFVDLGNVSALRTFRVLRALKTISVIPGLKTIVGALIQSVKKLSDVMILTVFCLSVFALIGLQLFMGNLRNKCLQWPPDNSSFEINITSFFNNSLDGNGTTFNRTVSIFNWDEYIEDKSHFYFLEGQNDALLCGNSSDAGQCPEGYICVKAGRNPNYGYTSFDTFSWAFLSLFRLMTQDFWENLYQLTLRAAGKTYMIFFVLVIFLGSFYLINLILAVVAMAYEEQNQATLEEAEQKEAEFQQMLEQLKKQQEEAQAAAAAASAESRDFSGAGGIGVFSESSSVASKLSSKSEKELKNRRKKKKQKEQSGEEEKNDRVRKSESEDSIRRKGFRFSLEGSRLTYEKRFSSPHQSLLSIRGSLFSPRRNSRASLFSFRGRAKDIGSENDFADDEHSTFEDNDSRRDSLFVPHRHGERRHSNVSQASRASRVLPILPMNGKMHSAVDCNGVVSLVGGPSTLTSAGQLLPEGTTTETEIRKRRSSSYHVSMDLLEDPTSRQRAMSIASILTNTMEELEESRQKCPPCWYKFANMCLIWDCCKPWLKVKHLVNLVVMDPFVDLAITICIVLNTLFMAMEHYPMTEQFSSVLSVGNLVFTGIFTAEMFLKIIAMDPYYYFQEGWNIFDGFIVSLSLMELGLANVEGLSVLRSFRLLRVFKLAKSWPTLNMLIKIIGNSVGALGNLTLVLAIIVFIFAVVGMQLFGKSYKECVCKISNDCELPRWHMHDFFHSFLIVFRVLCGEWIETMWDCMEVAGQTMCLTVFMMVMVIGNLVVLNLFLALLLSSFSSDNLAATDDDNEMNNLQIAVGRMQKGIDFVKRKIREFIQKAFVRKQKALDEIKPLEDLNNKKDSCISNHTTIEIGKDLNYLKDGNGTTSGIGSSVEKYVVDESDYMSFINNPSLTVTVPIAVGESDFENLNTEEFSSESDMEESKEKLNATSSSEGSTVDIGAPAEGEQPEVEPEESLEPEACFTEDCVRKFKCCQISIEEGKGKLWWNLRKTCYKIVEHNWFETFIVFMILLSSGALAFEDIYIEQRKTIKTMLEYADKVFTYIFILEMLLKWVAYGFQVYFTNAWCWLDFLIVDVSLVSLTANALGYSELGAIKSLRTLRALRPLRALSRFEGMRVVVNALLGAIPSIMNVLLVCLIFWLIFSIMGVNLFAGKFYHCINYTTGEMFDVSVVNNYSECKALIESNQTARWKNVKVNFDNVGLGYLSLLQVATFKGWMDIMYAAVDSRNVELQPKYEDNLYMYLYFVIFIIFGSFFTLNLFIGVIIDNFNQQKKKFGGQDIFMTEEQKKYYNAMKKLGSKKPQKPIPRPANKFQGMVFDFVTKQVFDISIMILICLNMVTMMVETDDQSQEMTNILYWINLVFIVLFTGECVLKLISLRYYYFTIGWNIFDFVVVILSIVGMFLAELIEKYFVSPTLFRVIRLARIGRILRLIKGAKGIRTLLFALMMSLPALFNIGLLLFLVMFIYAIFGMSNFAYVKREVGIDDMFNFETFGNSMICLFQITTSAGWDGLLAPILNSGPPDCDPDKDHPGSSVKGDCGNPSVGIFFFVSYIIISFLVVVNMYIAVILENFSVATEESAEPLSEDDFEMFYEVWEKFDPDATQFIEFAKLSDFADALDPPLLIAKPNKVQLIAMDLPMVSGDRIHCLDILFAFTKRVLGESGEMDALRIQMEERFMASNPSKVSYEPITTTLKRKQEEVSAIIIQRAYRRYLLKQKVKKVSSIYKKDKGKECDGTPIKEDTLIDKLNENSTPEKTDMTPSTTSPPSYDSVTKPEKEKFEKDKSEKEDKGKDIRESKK

Row | Structure (SMILES) | IC50 [8] [µM] | also measured
1 | NC1=N[C@H](O)[C@H]2[C@H]3O[C@]4(O)O[C@@H]([C@@H](O)[C@@]2(N1)[C@@H]4O)[C@]3(O)CO [TTX, tetrodotoxin] | – | IC50 [1]: 0.01 µM; IC50 [2]: > 50 µM; IC50 [3]: 0.015 µM; IC50 [4]: 1 µM; IC50 [5]: 0.006 µM; IC50 [6]: 0.01 µM
2 | NCC1(CC(=O)O)CCCCC1 [Gabapentin] | – | patients in whom it works [7]: 60%
3 | O=C(COc1ccc(Cl)cc1Cl)n1ccc2cc(S(=O)(=O)Nc3nccs3)ccc21 [Compound 183] | 2 to 5 | –
4 | COc1ccc(F)cc1C(=O)N1CCc2cc(S(=O)(=O)Nc3nccs3)ccc21 [Compound 83] | 2 to 5 | –
5 | Cc1ccc(OCC(=O)N2CCc3cc(S(=O)(=O)Nc4ncns4)ccc32)cc1C [Compound 97] | < 2 | –
6 | O=C(Oc1ccccc1)N1CCc2cc(S(=O)(=O)Nc3nccs3)ccc21 [Compound 163] | 2 to 5 | –
7 | O=C(ON1Cc2ccc(S(=O)(=O)Nc3nccs3)cc2C1)c1cccc(C(F)(F)F)c1 [Compound 59] | < 2 | –
8 | C[C@H](C(=O)N1CCc2cc(S(=O)(=O)Nc3nccs3)ccc21)n1ccc2ccccc21 [Compound 87] | < 2 | –
9 | O=C(CCCOc1ccc(Cl)cc1Cl)N1CCc2cc(S(=O)(=O)Nc3ncns3)ccc21 [Compound 33] | < 2 | –
10 | O=C(c1ccccc1F)N1CCc2cc(S(=O)(=O)Nc3ncns3)ccc21 [Compound 34] | > 5 | –
11 | O=C(c1ccc(F)cc1F)N1CCc2cc(S(=O)(=O)Nc3ncns3)ccc21 [Compound 118] | > 5 | –
12 | C[C@H](C(=O)N1CCc2cc(S(=O)(=O)Nc3ncns3)ccc21)n1ccc2c(F)cccc21 [Compound 93] | < 2 | –
13 | O=C(c1ccc(F)c(F)c1F)N1CCc2cc(S(=O)(=O)Nc3ncns3)ccc21 [Compound 6] | 2 to 5 | –
14 | Cc1ccc(C(=O)N2CCc3cc(S(=O)(=O)Nc4nccs4)ccc32)cc1 [Compound 47] | < 2 | –
15 | O=C(c1c(F)cc(F)cc1F)N1CCCc2cc(S(=O)(=O)Nc3nccs3)ccc21 [Compound 76] | > 5 | –
16 | O=C(COc1ccc(OC(F)(F)F)cc1)N1CCc2ccc(S(=O)(=O)Nc3nccs3)cc2C1 [Compound 52] | > 5 | –
17 | CC(Oc1cccc(Cl)c1)C(=O)N1CCc2cc(S(=O)(=O)Nc3nccs3)ccc21 (stereo not drawn) [Compound 91] | < 2 | –
18 | O=C(CNc1cc(F)ccc1F)N1CCc2cc(S(=O)(=O)Nc3nccs3)ccc21 [Compound 61] | < 2 | –
19 | O=C(COc1ccnc2c(C(F)(F)F)cccc12)N1CCc2cc(S(=O)(=O)Nc3ncns3)ccc21 [Compound 71] | < 2 | –
